Columns and labels:
[1] = tested on: SARS-CoV-2 (WIV04); test: Anti-viral activity assay; assay type: cell-based
[2] = target: SARS-CoV-2 3CL^Pro (Severe acute respiratory syndrome coronavirus 2, UniProt P0DTD1); test: Enzymatic inhibitory activity assay; assay type: biochemical; settings: IC50 compared with positive control 1

Row | SMILES | reduction of SARS-CoV-2 viral RNA [1] | also measured
1 | CC(C)C[C@H](NC(=O)/C=C/c1ccccc1)C(=O)N[C@H](C=O)C[C@@H]1CCNC1=O [Compound 10b, (S)-2-cinnamamido-4-methyl-N-((S)-1-oxo-3-((S)-2-oxopyrrolidin-3-yl)propan-2-yl)pentanamide] | more than 2 logs | –
2 | CCCC[C@H](NC(=O)/C=C/c1ccccc1)C(=O)N[C@H](C=O)C[C@@H]1CCNC1=O [Compound 10c, (S)-2-cinnamamido-N-((S)-1-oxo-3-((S)-2-oxopyrrolidin-3-yl)propan-2-yl)hexanamide] | more than 2 logs | –
3 | CC(C)C[C@H](NC(=O)/C=C/c1ccccc1)C(=O)N[C@H](C=O)C[C@@H]1CCCNC1=O [Compound 10g, (S)-2-cinnamamido-4-methyl-N-((S)-1-oxo-3-((S)-2-oxopiperidin-3-yl)propan-2-yl)pentanamide] | more than 2 logs | –
4 | CC(C)(C)[C@H](NC(=O)/C=C/c1ccccc1)C(=O)N[C@H](C=O)C[C@@H]1CCCNC1=O [Compound 10h, (S)-2-cinnamamido-3,3-dimethyl-N-((S)-1-oxo-3-((S)-2-oxopiperidin-3-yl)propan-2-yl)butanamide] | more than 2 logs | –
5 | CC(C)C[C@H](NC(=O)[C@@H](NC(=O)/C=C/c1ccccc1)C(C)C)C(=O)N[C@H](C=O)C[C@@H]1CCCNC1=O [Compound 14c, (S)-2-((S)-2-cinnamamido-3-methylbutanamido)-4-methyl-N-((S)-1-oxo-3-((S)-2-oxopiperidin-3-yl)propan-2-yl)pentanamide] | – | antiviral activity against SARS-CoV-2 (in words) [1]: no antiviral activity
6 | CC(C)C[C@H](NC(=O)[C@H](CC1CCCCC1)NC(=O)/C=C/c1ccccc1)C(=O)N[C@H](C=O)C[C@@H]1CCCNC1=O [Compound 14d, (S)-2-((S)-2-cinnamamido-3-cyclohexylpropanamido)-4-methyl-N-((S)-1-oxo-3-((S)-2-oxopiperidin-3-yl)propan-2-yl)pentanamide] | more than 2 logs | –
7 | CC(C)C[C@H](NC(=O)[C@@H](NC(=O)c1ccc2ccccc2c1)C(C)C)C(=O)N[C@H](C=O)C[C@@H]1CCCNC1=O [Compound 17i, N-((S)-3-methyl-1-(((S)-4-methyl-1-oxo-1-(((S)-1-oxo-3-((S)-2-oxopiperidin-3-yl)propan-2-yl)amino)pentan-2-yl)amino)-1-oxobutan-2-yl)-2-naphthamide] | more than 2 logs | –
8 | CC(C)C[C@H](NC(=O)[C@@H](NC(=O)c1ccc(Cl)cc1)C(C)C)C(=O)N[C@H](C=O)C[C@@H]1CCCNC1=O [Compound 17w, 4-chloro-N-((S)-3-methyl-1-(((S)-4-methyl-1-oxo-1-(((S)-1-oxo-3-((S)-2-oxopiperidin-3-yl)propan-2-yl)amino)pentan-2-yl)amino)-1-oxobutan-2-yl)benzamide] | – | increased inhibitory potency versus positive control 1 [2]: 4 fold
